Molecular target: T1, human PPARγ1 (Homo sapiens, UniProt P37231)
T1 construct: expressed in transfected cells; host or cells: HEK-293
T1 sequence (P37231 238-503 limits assumed): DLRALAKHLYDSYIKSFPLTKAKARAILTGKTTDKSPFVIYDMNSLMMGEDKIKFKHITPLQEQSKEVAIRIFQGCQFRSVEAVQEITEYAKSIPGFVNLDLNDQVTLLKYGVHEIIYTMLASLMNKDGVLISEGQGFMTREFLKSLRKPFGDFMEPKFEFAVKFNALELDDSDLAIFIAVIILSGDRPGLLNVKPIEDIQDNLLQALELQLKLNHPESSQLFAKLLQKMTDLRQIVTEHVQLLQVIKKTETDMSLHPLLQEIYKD
Experiment: in vitro PPARγ transactivation (GAL4-LBD luciferase reporter in HEK-293 cells)
Type: cell-based
Conditions: 1 μM
From the text: (§1) The following procedure was used for in vitro determination of PPARα, γ and δ transactivation.
(§2) The ligand binding domain of human PPARγ1, PPARα or PPARδ was fused to the C-terminal end of DNA binding domain of yeast transcription factor GAL4 in eukaryotic expression vector. Using SuperFect (Qiagen), HEK-293 cells were transfected with this plasmid and a reporter plasmid harboring the luciferase gene driven under the control of 5 tandem GLA4 response elements. In some experiments, pAdVantage vector (Promega) was used to enhance luciferase expression. Compounds were added approximately 48 hours after transfection at various concentrations and incubated overnight. The cells were lysed and the luciferase activity was measured using the LucLite kit in Top Count (Packard). Luciferase activity was expressed as fold activation relative to untreated cells in the same experiment.

| SMILES | PPARγ luciferase fold activation relative to untreated cells |
| --- | --- |
| CCC(C)(Oc1ccc(OCc2cc(-c3ccc(OS(C)(=O)=O)cc3)no2)cc1)C(=O)O (stereo not drawn) [Example 5] | 0.9 |
| CCC(C)(Oc1ccc(OCCCc2cc(-c3ccccc3)no2)cc1)C(=O)O (stereo not drawn) [Example 10] | 0.9 |

Same assay, conditions: 10 μM

| SMILES | PPARγ luciferase fold activation relative to untreated cells |
| --- | --- |
| CCC(C)(Oc1ccc(OCc2cc(-c3ccc(OS(C)(=O)=O)cc3)no2)cc1)C(=O)O (stereo not drawn) [Example 5] | 1.2 |
| CCC(C)(Oc1ccc(OCCCc2cc(-c3ccccc3)no2)cc1)C(=O)O (stereo not drawn) [Example 10] | 3.5 |

Same assay, conditions: 50 μM

| SMILES | PPARγ luciferase fold activation relative to untreated cells |
| --- | --- |
| CCC(C)(Oc1ccc(OCc2cc(-c3ccc(OS(C)(=O)=O)cc3)no2)cc1)C(=O)O (stereo not drawn) [Example 5] | 6.4 |
| CCC(C)(Oc1ccc(OCCCc2cc(-c3ccccc3)no2)cc1)C(=O)O (stereo not drawn) [Example 10] | 9.5 |

Molecular target: T2, human PPARδ (Homo sapiens, UniProt Q03181)
T2 construct: expressed in transfected cells; host or cells: HEK-293
T2 sequence (Q03181 211-439 limits assumed): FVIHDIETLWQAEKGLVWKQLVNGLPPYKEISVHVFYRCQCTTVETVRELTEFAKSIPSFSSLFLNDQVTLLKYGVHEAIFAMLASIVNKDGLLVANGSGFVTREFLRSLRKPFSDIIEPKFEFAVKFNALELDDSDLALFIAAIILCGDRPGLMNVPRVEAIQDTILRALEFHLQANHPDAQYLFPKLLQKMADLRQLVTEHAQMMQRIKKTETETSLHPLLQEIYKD
Experiment: in vitro PPARδ transactivation (GAL4-LBD luciferase reporter in HEK-293 cells)
Type: cell-based
Conditions: 1 μM
From the text: as §1, §2

| SMILES | PPARδ luciferase fold activation relative to untreated cells |
| --- | --- |
| CCC(C)(Oc1ccc(OCc2cc(-c3ccc(OS(C)(=O)=O)cc3)no2)cc1)C(=O)O (stereo not drawn) [Example 5] | 9.0 |
| CCC(C)(Oc1ccc(OCCCc2cc(-c3ccccc3)no2)cc1)C(=O)O (stereo not drawn) [Example 10] | 7.5 |

Same assay, conditions: 10 μM

| SMILES | PPARδ luciferase fold activation relative to untreated cells |
| --- | --- |
| CCC(C)(Oc1ccc(OCc2cc(-c3ccc(OS(C)(=O)=O)cc3)no2)cc1)C(=O)O (stereo not drawn) [Example 5] | 10 |
| CCC(C)(Oc1ccc(OCCCc2cc(-c3ccccc3)no2)cc1)C(=O)O (stereo not drawn) [Example 10] | 23 |

Same assay, conditions: 50 μM

| SMILES | PPARδ luciferase fold activation relative to untreated cells |
| --- | --- |
| CCC(C)(Oc1ccc(OCc2cc(-c3ccc(OS(C)(=O)=O)cc3)no2)cc1)C(=O)O (stereo not drawn) [Example 5] | 33 |
| CCC(C)(Oc1ccc(OCCCc2cc(-c3ccccc3)no2)cc1)C(=O)O (stereo not drawn) [Example 10] | 47 |

Test system: not given
Experiment: not given
Conditions: not given

| SMILES | melting point [°C] |
| --- | --- |
| CCC(C)(Oc1ccc(OCCCc2cc(-c3ccccc3)no2)cc1)C(=O)O (stereo not drawn) [Example 10] | 115 to 117 |

Test system: Male Swiss albino mice
Experiment: plasma triglyceride lowering in Swiss albino mice
Type: in vivo
Conditions: 3 mg/kg orally for 6 days, plasma triglycerides
Experimental: Male Swiss albino mice (SAM) were obtained from National Institute Nutrition (NIN, Hyderabad, India) and housed in Dr. Reddy's Laboratories Ltd (DRL) animal house. All these animals were maintained under 12 hour light and dark cycle at 25±1° C. Animals were given standard laboratory chow (NIN, Hyderabad, India) and water, ad libitum. Mice of 20-25 grams body weight range were used. See Olivier, et al., Atherosclerosis, 1988, 70:107-114, incorporated herein by reference in its entirety. The test compounds were administered orally to mice at the doses shown in the following in table for 6 days. […] After centrifugation, plasma was separated for plasma triglyceride and total cholesterol measurement. See Wieland, Methods of Enzymatic Analysis, Bergermeyer, ed., 1963, 211-214; Trinder, Ann. Clin. Biochenz., 1969, 6:24-27, incorporated herein by reference in their entireties. Measurement of cholesterol and plasma triglyceride was done using a […] autoanalyser (Merck). The percent reductions in plasma triglycerides (TG)/total cholesterol were calculated according to the following formula: [formula] OC=Zero day control group value OT=Zero day treated group value TC=Test day control group value TT=Test day treated group value.

| SMILES | % reduction in TG [%] |
| --- | --- |
| CCC(C)(Oc1ccc(OCc2cc(-c3ccc(OS(C)(=O)=O)cc3)no2)cc1)C(=O)O (stereo not drawn) [Example 5] | 75 |
| CCC(C)(Oc1ccc(OCCCc2cc(-c3ccccc3)no2)cc1)C(=O)O (stereo not drawn) [Example 10] | 75 |

Molecular target: T3, human PPARα (Homo sapiens, UniProt Q07869)
T3 construct: expressed in transfected cells; host or cells: HEK-293
T3 sequence (Q07869 239-466 limits assumed): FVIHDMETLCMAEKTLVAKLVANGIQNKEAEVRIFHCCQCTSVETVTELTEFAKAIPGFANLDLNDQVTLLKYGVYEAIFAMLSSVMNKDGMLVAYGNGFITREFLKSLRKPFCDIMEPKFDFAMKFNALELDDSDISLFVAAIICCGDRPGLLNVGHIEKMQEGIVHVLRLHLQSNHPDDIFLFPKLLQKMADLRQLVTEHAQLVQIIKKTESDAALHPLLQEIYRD
Experiment: in vitro PPARα transactivation (GAL4-LBD luciferase reporter in HEK-293 cells)
Type: cell-based
Conditions: 1 μM
From the text: Generally, suitable PPAR agonists are believed to be useful for attenuating and/or treatment of diabetic dyslipidemia, metabolic syndrome, diabetes, cardiovascular disease, and obesity. The following procedure was used for in vitro determination of PPARα, γ and δ transactivation.
as §2

| SMILES | PPARα luciferase fold activation relative to untreated cells |
| --- | --- |
| CCC(C)(Oc1ccc(OCc2cc(-c3ccc(OS(C)(=O)=O)cc3)no2)cc1)C(=O)O (stereo not drawn) [Example 5] | 1.7 |
| CCC(C)(Oc1ccc(OCCCc2cc(-c3ccccc3)no2)cc1)C(=O)O (stereo not drawn) [Example 10] | 4.0 |

Same assay, conditions: 10 μM

| SMILES | PPARα luciferase fold activation relative to untreated cells |
| --- | --- |
| CCC(C)(Oc1ccc(OCc2cc(-c3ccc(OS(C)(=O)=O)cc3)no2)cc1)C(=O)O (stereo not drawn) [Example 5] | 3.8 |
| CCC(C)(Oc1ccc(OCCCc2cc(-c3ccccc3)no2)cc1)C(=O)O (stereo not drawn) [Example 10] | 5.7 |

Same assay, conditions: 50 μM

| SMILES | PPARα luciferase fold activation relative to untreated cells |
| --- | --- |
| CCC(C)(Oc1ccc(OCc2cc(-c3ccc(OS(C)(=O)=O)cc3)no2)cc1)C(=O)O (stereo not drawn) [Example 5] | 6.0 |
| CCC(C)(Oc1ccc(OCCCc2cc(-c3ccccc3)no2)cc1)C(=O)O (stereo not drawn) [Example 10] | 5.1 |
